Experiment [1] deals with T1, C. perfringens PepcA (archaeal-type phosphoenolpyruvate carboxylase) (Clostridium perfringens, UniProt Q8XLE8). As to the kind of experiment: biochemical.
In experiment [2] the target is T1, C. perfringens PepcA (archaeal-type phosphoenolpyruvate carboxylase).

In turn, `N[C@@H](CC(=O)O)C(=O)O` [aspartate] had a Ki in experiment [1] of 200 µM.

Take Mg^++.PEP: the Km in experiment [2] amounted to 60 µM.

By Ki is commonly meant a dissociation constant, usually derived from enzyme kinetics or from competition with a known ligand. High values mean lower affinity, low ones higher affinity. Broadly, the Km is the substrate concentration at which the rate is half of its maximum.

These data come from article PMC3092815 (Proteins, 2011).
